Measured values reported in ChEMBL document CHEMBL1142763, “Dibenzodioxocinones--a new class of CETP inhibitors” (Bioorg Med Chem Lett, 2005).

What was measured:
[1] = biological target: T1, Cholesteryl ester transfer protein (Homo sapiens, UniProt P11597); experiment: Inhibitory concentration against Cholesterol ester transfer protein (CETP) in CETP fluorescence assay
T1 sequence (P11597 whole entry): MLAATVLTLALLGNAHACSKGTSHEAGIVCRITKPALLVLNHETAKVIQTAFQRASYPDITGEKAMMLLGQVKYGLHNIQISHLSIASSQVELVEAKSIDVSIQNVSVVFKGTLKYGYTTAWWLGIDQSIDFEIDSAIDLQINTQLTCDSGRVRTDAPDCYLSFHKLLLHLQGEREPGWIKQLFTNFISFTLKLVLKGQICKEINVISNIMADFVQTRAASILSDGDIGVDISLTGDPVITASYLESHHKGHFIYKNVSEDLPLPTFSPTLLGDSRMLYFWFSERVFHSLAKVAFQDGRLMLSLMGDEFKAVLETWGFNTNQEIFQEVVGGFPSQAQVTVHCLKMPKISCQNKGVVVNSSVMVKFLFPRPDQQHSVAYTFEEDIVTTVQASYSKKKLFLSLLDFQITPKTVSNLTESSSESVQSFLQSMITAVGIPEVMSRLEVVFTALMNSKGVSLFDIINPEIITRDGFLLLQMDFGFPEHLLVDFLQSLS

[2] = (§1) Half life period […] determined in rat plasma; assay type: ADME, organism-based
[3] = as §1; assay type: ADME, cell-free

| Structure (SMILES) | IC50 [1] [nM] | half-life [3] [h] | half-life [2] [h] |
| --- | --- | --- | --- |
| COc1c([C@@H](O)CC(C)C)ccc2c1C(=O)Oc1cc(C)cc(OC(=O)N3CC4CCC4C3)c1O2 (some centres not stated) | 400 |  |  |
| COc1c([C@@H](O)CC(C)C)ccc2c1C(=O)Oc1cc(C)cc(OC(=O)N3CCCC3)c1O2 | 800 |  | 2.9 |
| COc1c([C@@H](O)CC(C)C)ccc2c1C(=O)Oc1cc(C)cc(O)c1O2 | > 20000 |  |  |
| COc1c([C@@H](O)CC(C)C)ccc2c1C(=O)Oc1cc(C)cc(OC(=O)C3CC4C=CC3C4)c1O2 (some centres not stated) | 200 | < 0.1 |  |
| COc1c([C@@H](O)CC(C)C)ccc2c1C(=O)Oc1cc(C)cc(OC(=O)[N+]34CCC(CC3)C4)c1O2 | 200 |  | 3.9 |
| COc1c([C@@H](O)CC(C)C)ccc2c1C(=O)Oc1c(Cl)c(C)c(Br)c(OC(=O)C3(C)C4CCC3CC4)c1O2 (some centres not stated) | 60 | > 3 |  |
| COc1c([C@@H](O)CC(C)C)ccc2c1C(=O)Oc1cc(C)cc(OC(=O)N(C(C)C)C(C)C)c1O2 | 700 |  | > 5 |
| CCN(CC)C(=O)Oc1cc(C)cc2c1Oc1ccc([C@@H](O)CC(C)C)c(OC)c1C(=O)O2 | 3000 |  |  |
| COc1c([C@@H](O)CC(C)C)ccc2c1C(=O)Oc1cc(C)cc(OS(=O)(=O)C(C)C)c1O2 | 700 |  |  |
| CCc1c(C)c(Cl)c2c(c1OC(=O)C1(C)C3CCC1CC3)Oc1ccc([C@@H](O)CC(C)(C)C)c(OC)c1C(=O)O2 (some centres not stated) | 15 |  |  |
| COc1c(C(O)CC2CCCCC2)ccc2c1C(=O)Oc1cc(C)cc(OCCC(C)C)c1O2 (racemic) | > 20000 |  |  |
| COc1c(C(O)CC2CC2)ccc2c1C(=O)Oc1cc(C)cc(OCCC(C)C)c1O2 (racemic) | 10000 |  |  |
| COc1c(C(O)CCC(C)C)ccc2c1C(=O)Oc1cc(C)cc(OCCC(C)C)c1O2 (racemic) | > 20000 |  |  |
| COc1c(C(O)CC(C)(C)C)ccc2c1C(=O)Oc1cc(C)cc(OCCC(C)C)c1O2 (racemic) | 1500 |  |  |

The remaining compounds from weak to strong by IC50 [1], led by results:

| IC50 [1] [nM] | half-life [3] [h] | Structure (SMILES) | half-life [2] [h] |
| --- | --- | --- | --- |
| 13000 |  | COc1c([C@@H](O)CC(C)C)ccc2c1C(=O)Oc1cc(C)cc(OCc3ccccc3)c1O2 |  |
| 10000 |  | COc1c([C@@H](O)CC(C)C)ccc2c1C(=O)Oc1cc(C)cc(OS(=O)(=O)C(F)(F)F)c1O2 |  |
| 6000 |  | COc1c([C@@H](O)CC(C)C)ccc2c1C(=O)Oc1cc(C)cc(OS(=O)(=O)c3c(F)cc(F)cc3F)c1O2 |  |
| 4000 |  | CCCCCS(=O)(=O)Oc1cc(C)cc2c1Oc1ccc([C@@H](O)CC(C)C)c(OC)c1C(=O)O2 |  |
| 4000 |  | COc1c(C(O)C(C)C)ccc2c1C(=O)Oc1cc(C)cc(OCCC(C)C)c1O2 (racemic) |  |
| 2000 |  | COc1c(C(O)CC(C)C)ccc2c1C(=O)Oc1cc(C)cc(OCCC(C)C)c1O2 (racemic) |  |
| 1500 |  | COc1c([C@@H](O)CC(C)C)ccc2c1C(=O)Oc1cc(C)cc(OCC3CCCC3)c1O2 |  |
| 800 |  | COc1c([C@@H](O)CC(C)C)ccc2c1C(=O)Oc1cc(C)cc(OC(=O)C(C)(C)C)c1O2 | < 0.1 |
| 600 |  | COc1c([C@@H](O)CC(C)C)ccc2c1C(=O)Oc1cc(C)cc(OC(=O)C3CCCC3)c1O2 |  |
| 200 | 4.2 | COc1c([C@@H](O)CC(C)C)ccc2c1C(=O)Oc1cc(C)cc(OC(=O)C3(C)C4CCC3CC4)c1O2 (some centres not stated) |  |
| 200 | 0.64 | COc1c([C@@H](O)CC(C)C)ccc2c1C(=O)Oc1cc(C)cc(OC(=O)C3(C)CC4C=CC3C4)c1O2 (some centres not stated) |  |
| 32 |  | COc1c([C@@H](O)CC(C)(C)C)ccc2c1C(=O)Oc1c(Cl)c(C)c(Br)c(OC(=O)C3(C)C4CCC3CC4)c1O2 (some centres not stated) |  |
| 30 |  | COc1c([C@@H](O)CC(C)(C)C)ccc2c1C(=O)Oc1c(Cl)c(C)c(C)c(OC(=O)C3(C)C4CCC3CC4)c1O2 (some centres not stated) |  |
| 30 | > 3 | COc1c([C@@H](O)CC(C)C)ccc2c1C(=O)Oc1c(Cl)c(C)c(C)c(OC(=O)C3(C)C4CCC3CC4)c1O2 (some centres not stated) |  |
